Patent US20200071380A1, “COMBINATION THERAPIES COMPRISING SIRP ALPHA-BASED CHIMERIC PROTEINS” (Shattuck Labs, Inc., priority 2018, published 2020)

Assays:
CT26 tumors = test: Syngeneic CT26 colon tumor model versus CD40/CD47 antibodies (Example 11); format: in vivo, mice
Experimental: FIG. 20C: a similar CT26 experiment was initiated as described in FIG. 20A above, however mice were pre-treated on days −1, 1, and 10 with IP injections of 100 μg of either or both CD4/CD8 depleting antibodies. Mice were inoculated with CT26 tumors on day 0 and treated at a later starting date than FIG. 20A with mSIRPα-Fc-CD40L ARC on days 7, 9, and 11. […] In FIG. 20D and FIG. 20E, BALB/C mice were inoculated with WEHI3 tumors (FIG. 20D) or A20 tumors (FIG. 20E) subcutaneously on the rear flank, and then treated via IP injection with anti-CD20 or mSIRPα-Fc-CD40L on days 7, 9, and 11 (WEHI3) or days 10, 12, and 14 (A20); when tumors were established and reached approximately 57-60 mm^3. A cohort of mice were pre-treated with an interferon alpha receptor 1 (IFNAR1) blocking antibody ([…] by IP injection) on days -1, 1, and 10 (WEHI3) or on days −1, 1, and 13 (A20). FIG. 20F to FIG. 20H are graphs showing blockade of CD4, CD8, and IFNAR1. Peripheral blood analysis by flow cytometry of CD4 (FIG. 20F), CD8 (FIG. 20G), and IFNAR1 (FIG. 20H) depletion following depleting antibody treatment corresponding to FIG. 20C to FIG. 20E. Samples were normalized to untreated animals.
Implanted CT26 tumors were allowed to grow to ˜30 mm^3 before treatment was initiated with a fixed regimen of two doses of either a CD40 agonist antibody (clone FGK4.5), a CD47 blocking antibody (clone MIAP301), a combination of the two antibodies, or the murine SIRPα-Fc-CD40L chimeric protein. […] Based on this observation, these experiments were repeated in the setting of antibody-mediated depletion of both CD4+ and CD8+ cells (FIG. 20C).
CD4 and CD8 depletion was verified in the peripheral blood at multiple time points during the experiment (see, FIG. 20F and FIG. 20G).

[1] = tested on: low EGFR-expressing Chronic myeloid leukemia (CML) cell line (K562); test: Macrophage engulfment of K562 cells; format: cell-based, human; conditions: K562, negative control cell line
[2] = target: recombinant hCD47 and recombinant hCD40 (Homo sapiens, UniProt P25942+Q08722); test: Functional dual ELISA, hCD40 capture and hCD47-His detection; format: binding
RAW264.7-ISG cells = test: RAW264.7-ISG interferon reporter cells co-cultured with A20 lymphoma cells; format: cell-based, murine; conditions: co-culture with A20 lymphoma cells, 24 hours
Experimental: (§1) FIG. 8D: Macrophage:Toledo lymphoma co-cultures were harvested 2 hours into phagocytosis assays in the presence of rituximab ([…]), SIRPα-Fc-CD40L ([…]), or the combination of both agents. Macrophages were isolated by CD11b+FACS, RNA was prepared, cDNA synthesized, and gene expression (IFNa1, IFNb1, CD80, and CD86) assessed by qRT-PCR. Fold change was calculated using DDCT and values obtained from the housekeeping gene ACTB, and the corresponding values from untreated samples. […] After 2 hours, co-cultures were isolated from tissue culture vessels and were stained with a fluorescently conjugated CD11b antibody to discriminate macrophages. Cells were then assessed by flow cytometry for the co-localization of fluorescent signal from both cells types. […] After 24-hours type I interferon induced luminescence was assessed using a luminometer. The maximum luminescence (RLU) from each experiment was set to 1, and all other samples were normalized accordingly. […]
Additionally, a macrophage reporter system was used to detect activation. […] After 24 hours, culture supernatant was collected and assessed for luciferase activity, which would indicate activation of a type I interferon response in the RAW-ISG reporter cells. […]

[3] = tested on: macrophages co-cultured with Toledo lymphoma cells; test: qRT-PCR of macrophages sorted from Toledo lymphoma co-cultures; format: cell-based, human; conditions: qRT-PCR on macrophages isolated by FACS from Toledo co-cultures
Experimental: as §1
RNA was prepared from macrophages isolated using fluorescent activated cell sorting (FACS) from SIRPα-Fc-CD40L/Rituximab treated co-cultures macrophages and Toledo lymphoma cells. The RNA was assessed by gRT-PCR for expression of IFNα1 and IFNβ1, and the macrophage activation markers CD80 and CD86.

[4] = tested on: cynomolgus macaque erythrocytes; test: In vitro hemolysis assay, cynomolgus macaque erythrocytes; format: cell-based
From the text: However, the in vitro systems used to test this question have significant limitations, including a complete lack of macrophages in the test system.

[5] = Repeat-dose safety and activity study in cynomolgus macaques; format: in vivo
Experimental: FIG. 21A-D is a graph showing cynomolgus macaques that were treated with vehicle, or 0.1, 1, 10, and 40 mg/kg of SIRPα-Fc-CD40L. Blood chemistry analysis assessed peripheral erythrocyte counts (FIG. 21A), hemoglobin levels (FIG. 21C), and hematocrit (FIG. 21B). In addition, the fold-change in lymphocyte count from pre-dose to 24 hours post-dose is shown (FIG. 21D).
The experiments of this example tested the safety and activity of the human SIRPα-Fc-CD40L chimeric protein following repeat doses in cynomolgus macaques. Briefly, naïve cynomolgus macaques were administered the human SIRPα-Fc-CD40L chimeric protein by intravenous infusion every week, for five consecutive weeks, at doses of 0.1, 1, 10 and 40 mg/kg. Standard hematology and clinical chemistry parameters were collected before and after each dose.
Receptor occupancy was evaluated on circulating CD40+ lymphocytes.

For “SIRPα-Fc-CD40L: Generic name of the SIRPα ECD-Fc-CD40L ECD chimeric protein; human or murine version depending on the test system”, which “therapeutic benefit, requirement for CD4+ T cells” value (CT26 tumors; antibody-mediated depletion of CD4+ cells) is on record?
The value was “partially required”.

And the “therapeutic benefit in the absence of CD8+ cells” value (CT26 tumors; antibody-mediated depletion of CD8+ cells)?
The value was “completely eliminated the therapeutic benefit”.

And the “proportion of AH1-tetramer positive CD8+ T cells” value (CT26 tumors; tumor and spleen, 13 days following tumor inoculation)?
The value was “increase in the proportion of AH1-tetramer positive CD8+T cells in both the tumor and spleen”.

And the phagocytic activity [1]?
Its phagocytic activity is “no phagocytic activity”.

And the “simultaneous binding to recombinant hCD47 and recombinant hCD40” value [2]?
Its value is “simultaneous binding”.

And the “type I interferon response, interferon gene-driven luciferase activity” value (RAW264.7-ISG cells)?
Its value is “stimulates an increase in interferon gene-driven luciferase activity”.

What about the “macrophage activation (CD80, CD86) and expression of type I interferon genes (IFNα1, IFNβ1)” value [3] of the same substance?
Its value is “induced macrophage activation and the expression of type I interferon genes”.

And the hemolysis in vitro [4]?
The hemolysis in vitro was “did not reveal evidence of hemolysis”.

What about the “number of CD40+ cells in the peripheral blood” value ([5]; 0.1, 1, 10 and 40 mg/kg) of the same substance?
Its value is “dose-dependent decrease in the number of CD40+ cells in the peripheral blood”.

And the hematology parameters ([5]; declines also noted in the vehicle control group)?
The hematology parameters was “Mild declines in hematology parameters”.

What about the “total number of lymphocytes before and after each dose” value ([5]; episodic fluctuation) of the same substance?
The value was “did not depart from the upper and lower range of normal”.

And the “serum cytokines (CCL2, CXCL9, CXCL10, IL-6, IL-15, IL-17A, IL-23)” value ([5]; following each infusion)?
The value was “dose-dependent increases in multiple serum cytokines”.
